Measured values from patent US11407715B2, “Substituted indoline derivatives as dengue viral replication inhibitors” (JANSSEN PHARMACEUTICALS, INC., priority 2017, dated 2022).
Read-outs that look alike come from different tables or passages of the source.

Tests used:
DENV-2 16681 strain = assay: microbe, parasite or virus in culture; assay type: cell-based, Dengue virus; conditions: for EC50: DENV-2 16681 eGFP, Vero cells, MOI 0.5, 3 days; for SI: SI=CC50/EC50, DENV-2 antiviral assay
DENV-1 strain TC974#666 = assay: Tetravalent RT-qPCR assay, serotype 1; assay type: cell-based, Dengue virus; conditions: RT-qPCR serotype 1 TC974#666, Vero cells
Description: (§1) The antiviral activity of the compounds of the invention was tested against DENV-1 strain TC974#666 (NCPV), DENV-2 strain 16681, DENV-3 strain H87 (NCPV) and DENV-4 strain H241 (NCPV) in a RT-qPCR assay. Therefore, Vero cells were infected with either DENV-1, or -2, or -3, or -4 in the presence or absence of test compounds. At day 3 post-infection, the cells were lysed and cell lysates were used to prepare cDNA of both a viral target (the 3′UTR of DENV; Table 2) and a cellular reference gene (β-actin, Table 2). Subsequently, a duplex real time PCR was performed on a Lightcycler480 instrument. The generated Cp value is inversely proportional to the amount of RNA expression of these targets. Inhibition of DENV replication by a test compound results in a shift of Cp's for the 3′UTR gene. On the other hand, if a test compound is toxic to the cells, a similar effect on β-actin expression will be observed. The comparative ΔΔCp method is used to calculate ECs50, which is based on the relative gene expression of the target gene (3′UTR) normalized with the cellular housekeeping gene (β-actin). In addition, CC50 values are determined based on the Cp values acquired for the housekeeping gene β-actin.
(§2) The culture medium consisted of minimal essential medium supplemented with 2% of heat-inactivated fetal calf serum, 0.04% gentamycin (50 mg/mL) and 2 mM of L-glutamine. Vero cells, obtained from ECACC, were suspended in culture medium and 75 μL/well was added in 96-well plates (10000 cells/well), which already contain the antiviral compounds. […] In addition, each plate contains wells which are assigned as virus controls (containing cells and virus in the absence of compound) and cell controls (containing cells in the absence of virus and compound). Once the cells were added in the plates, the plates were incubated in a fully humidified incubator (37° C., 5% CO2) until the next day. Dengue viruses serotype-1, 2, 3 and 4 were diluted in order to obtain a Cp of ˜22-24 in the assay. Therefore, 25 μL of virus suspension was added to all the wells containing test compound and to the wells assigned as virus control. In parallel, 25 μL of culture medium was added to the cell controls. Next, the plates were incubated for 3 days in a fully humidified incubator (37° C., 5% CO2). After 3 days, the supernatant was removed from the wells and the cells were washed twice with ice-cold PBS (˜100 μL). The cell pellets within the 96-well plates were stored at −80° C. for at least 1 day. Next, RNA was extracted using the Cells-to-CT™ lysis kit, according to the manufacturer's guideline (Life Technologies). The cell lysates can be stored at −80C or immediately used in the reverse transcription step.
(§3) In preparation of the reverse transcription step, mix A (table 3A) was prepared and 7.57 μL/well was dispensed in a 96-well plate. After addition of 5 μL of the cell lysates, a five minute denaturation step at 75° C. was performed (table 3B). Afterwards, 7.43 μL of mix B was added (table 3C) and the reverse transcription step was initiated (table 3D) to generate cDNA.
(§4) Finally, a RT-qPCR mix was prepared, mix C (table 4A), and 22.02 μL/well was dispensed in 96-well LightCycler qPCR plates to which 3 μL of cDNA was added and the qPCR was performed according to the conditions in table 4B on a LightCycler 480.
(§5) Using the LightCycler software and an in-house LIMS system, dose response curves for each compound were calculated and the half maximal effective concentration (EC50) and the half maximal cytotoxic concentration (CC50) were determined (Tables 5-8).

DENV-2 strain 16681 = assay: Tetravalent RT-qPCR assay, serotype 2; assay type: cell-based, Dengue virus; conditions: RT-qPCR serotype 2 16681, Vero cells
Description: as §1, §2, §3, §4, §5

DENV-3 strain H87 = assay: Tetravalent RT-qPCR assay, serotype 3; assay type: cell-based, Dengue virus; conditions: RT-qPCR serotype 3 H87, Vero cells
Description: as §1, §2, §3, §4, §5

DENV-4 strain H241 = assay: Tetravalent RT-qPCR assay, serotype 4; assay type: cell-based, Dengue virus; conditions: RT-qPCR serotype 4 H241, Vero cells
Description: as §1, §2, §3, §4, §5

in vitro [1] = conditions: African green monkey
Vero cells [2] = conditions: African green monkey
Vero cells [3] = conditions: African green monkey, 3 days
in vitro [4] = conditions: African green monkey; remark: listed apart in the source

Structure (SMILES)	EC50 (DENV-2 16681 strain)	SI (DENV-2 16681 strain)	EC50 (DENV-1 strain TC974#666; Dengue virus, DENV1, Vero)	EC50 (DENV-2 strain 16681; Dengue virus, DENV2, Vero)	EC50 (DENV-3 strain H87; Dengue virus, DENV3, Vero)	EC50 (DENV-4 strain H241; Dengue virus, DENV4, Vero)	CC50 (in vitro [1])	EC50 (DENV-1 strain TC974#666)	EC50 (DENV-2 strain 16681)	EC50 (DENV-3 strain H87)	EC50 (DENV-4 strain H241)	CC50 (Vero cells [2])	CC50 (Vero cells [3])	CC50 at 3 days (in vitro [4])
COc1cc(CCCCC(=O)O)cc(NC(C(=O)N2CCc3ccc(OC(F)(F)F)cc32)c2ccc(Cl)cc2)c1 (single isomer, unassigned) [Compound 14A]	0.11 nM	151558	0.26 nM	0.2 nM	2.8 nM	15 nM	16000 nM							
COc1cc(NC(C(=O)N2CCc3cc(F)c(OC(F)(F)F)cc32)c2ccc(Cl)cc2)cc(OCC2CC(C(=O)O)C2)c1 (stereo not shown) [Compound 30A]	0.24 nM	47400		0.076 nM	1.9 nM	18 nM	13000 nM	0.094 nM						
COc1cc(NC(C(=O)N2CCc3cc(OC)c(C(F)(F)F)cc32)c2ccc(Cl)cc2)cc(OCCC(C)C(=O)O)c1 (single isomer, unassigned) [Compound 20C]	0.17 nM	59500						0.3 nM	0.071 nM	3.4 nM	20 nM	12000 nM	> 1000 nM	> 1000 nM
COc1cc(NC(C(=O)N2CCc3ccc(OC(F)(F)F)cc32)c2ccc(Cl)cc2)cc(OCCCCC(=O)O)c1 (single isomer, unassigned) [Compound 13B]	0.13 nM	88200	0.19 nM	0.12 nM	1.9 nM	15 nM						12000 nM		> 2500 nM
COc1cc(NC(C(=O)N2CCc3ccc(OC(F)(F)F)cc32)c2ccc(Cl)cc2)cc(OCCC(C)C(=O)O)c1 (single isomer, unassigned) [Compound 1C]	0.094 nM	131193	0.23 nM	0.18 nM	2.4 nM	16 nM	12000 nM							
COc1cc(NC(C(=O)N2CCc3ccc(OC(F)(F)F)cc32)c2ccc(Cl)cc2)cc(OCCC(C)(C)C(=O)O)c1 (single isomer, unassigned) [Compound 2A]	0.38 nM	34500	0.57 nM	0.48 nM	6.1 nM	27 nM	13000 nM							> 2500 nM
COc1cc(NC(C(=O)N2CCc3ccc(OC(F)(F)F)cc32)c2ccc(Cl)cc2)cc(OCC(C)CC(=O)O)c1 (single isomer, unassigned) [Compound 4C]	0.11 nM	121878				15 nM		0.066 nM	0.06 nM	0.77 nM		13000 nM	> 1000 nM	
COc1cc(NC(C(=O)N2CCc3ccc(OC(F)(F)F)cc32)c2ccc(Cl)cc2)cc(OCC2(F)CC2C(=O)O)c1 (stereo not shown) [Compound 28BB]	0.2 nM	70600						0.11 nM	0.1 nM	1.2 nM	18 nM	12000 nM	> 1000 nM	
COc1cc(NC(C(=O)N2CCc3ccc(OC(F)(F)F)cc32)c2ccc(Cl)cc2)cc(OCC2(CC(=O)O)CC2)c1 (single isomer, unassigned) [Compound 5A]	0.51 nM	26300	0.58 nM	0.42 nM	8.1 nM	58 nM	12000 nM							
COc1cc(NC(C(=O)N2CCc3ccc(OC(F)(F)F)cc32)c2ccc(Cl)cc2)cc(OCC2(F)CC2C(=O)O)c1 (stereo not shown) [Compound 29BB]	0.069 nM	124722					12000 nM	0.048 nM	0.025 nM	0.39 nM	2.8 nM			
COc1cc(NC(C(=O)N2CCc3cc(OC)c(C(F)(F)F)cc32)c2ccc(Cl)cc2)cc(OCCC(C)C(=O)O)c1 (single isomer, unassigned) [Compound 20D]	0.23 nM	53400						0.89 nM	0.19 nM	8.9 nM	55 nM	13000 nM	> 1000 nM	
COc1cc(NC(C(=O)N2CCc3ccc(OC(F)(F)F)cc32)c2ccc(Cl)cc2)cc(OC2CC(C(=O)O)C2)c1 (stereo not shown) [Compound 8B]	0.023 nM	>102836						0.032 nM	0.025 nM	0.16 nM	1.3 nM	14000 nM		
COc1cc(NC(C(=O)N2CCc3cc(OC)c(C(F)(F)F)cc32)c2ccc(Cl)cc2)cc(OCC2CC2C(=O)O)c1 (stereo not shown) [Compound 22BB]	0.46 nM	27600						1.5 nM	0.33 nM	9 nM	71 nM	14000 nM		
COc1cc(NC(C(=O)N2CCc3cc(F)c(OC(F)(F)F)cc32)c2ccc(Cl)cc2)cc(OC2CC(C(=O)O)C2)c1 (single isomer, unassigned) [Compound 27B]	0.022 nM	>205482	0.013 nM	0.014 nM	0.091 nM	0.81 nM						13000 nM		
COc1cc(NC(C(=O)N2CCc3ccc(OC(F)(F)F)cc32)c2ccc(Cl)cc2)cc(OCC(C)CC(=O)O)c1 (single isomer, unassigned) [Compound 4D]	0.17 nM	81200						0.23 nM	0.13 nM	2.3 nM	26 nM	13000 nM		
